Key:
[1] = value reported by the manufacturer of the commercial product, a rough average, or inventors' judgment; cited from earlier work
[2] = Surfactant combinations giving clear aqueous dispersions (maximum hydrophobic surfactant, visual optical clarity); details: for approximate maximum grams of hydrophobic surfactant per 100 g of hydrophilic surfactant giving acceptable optical clarity: 10× aqueous dispersion, no solubilizer
[3] = hydrophilic surfactant Cremophor RH40 + 20% Ethanol
[4] = hydrophilic surfactant Cremophor RH40 + 20% Glycofurol
[5] = hydrophilic surfactant Cremophor RH40 + 20% Triacetin
[6] = hydrophilic surfactant Cremophor RH40, solubilizer (None), reproduced from Table 19
[7] = hydrophilic surfactant PEG-8 Capric/Caprylic (Labrasol)
[8] = hydrophilic surfactant PEG-25 Glyceryl trioleate (Tagat TO)
[9] = hydrophilic surfactant PEG-35 Castor Oil (Incrocas 35)
[10] = hydrophilic surfactant PEG-40H Castor Oil (Cremophor RH-40)
[11] = hydrophilic surfactant PEG-60 Corn Oil (Crovol M-70)
[12] = hydrophilic surfactant Polysorbate 80 (Tween 80)
[13] = hydrophilic surfactant Polysorbate-20 (Tween 20)

For `CCCCCCCC/C=C\CCCCCCCC(=O)OCC` [Ethyl oleate], the HLB [1] is listed as <10, the “effect of added solubilizer on the relative amount of hydrophobic surfactant that can be used” value ([2]; Cremophor RH 40 hydrophilic surfactant, 20% solubilizer) is listed as “negligible” and the “approximate maximum grams of hydrophobic surfactant per 100 g of hydrophilic surfactant giving a clear aqueous dispersion” value [2, 3] is listed as 60 g per 100 g of hydrophilic sur. For the same compound, the “approximate maximum grams of hydrophobic surfactant per 100 g of hydrophilic surfactant giving a clear aqueous dispersion” value [2, 4] was 60 g per 100 g of hydrophilic sur, the “approximate maximum grams of hydrophobic surfactant per 100 g of hydrophilic surfactant giving a clear aqueous dispersion” value [2, 5] was 60 g per 100 g of hydrophilic sur and the “approximate maximum grams of hydrophobic surfactant per 100 g of hydrophilic surfactant giving a clear aqueous dispersion” value [2, 6] was 60 g per 100 g of hydrophilic sur. For the same compound, the “approximate maximum grams of hydrophobic surfactant per 100 g of hydrophilic surfactant giving acceptable optical clarity” value [2, 7] was 10 g per 100 g of hydrophilic sur, the “approximate maximum grams of hydrophobic surfactant per 100 g of hydrophilic surfactant giving acceptable optical clarity” value [2, 8] was 10 g per 100 g of hydrophilic sur and the “approximate maximum grams of hydrophobic surfactant per 100 g of hydrophilic surfactant giving acceptable optical clarity” value [2, 9] was 40 g per 100 g of hydrophilic sur. For the same compound, the “approximate maximum grams of hydrophobic surfactant per 100 g of hydrophilic surfactant giving acceptable optical clarity” value [2, 10] was 60 g per 100 g of hydrophilic sur, the “approximate maximum grams of hydrophobic surfactant per 100 g of hydrophilic surfactant giving acceptable optical clarity” value [2, 11] was 60 g per 100 g of hydrophilic sur and the “approximate maximum grams of hydrophobic surfactant per 100 g of hydrophilic surfactant giving acceptable optical clarity” value [2, 12] was 10 g per 100 g of hydrophilic sur. The “approximate maximum grams of hydrophobic surfactant per 100 g of hydrophilic surfactant giving acceptable optical clarity” value [2, 13] was 10 g per 100 g of hydrophilic sur.

In the case of `CCCCCCCC(=O)OCC(C)OC(=O)CCCCCCC` (centres unmarked) [Propylene glycol dicaprylate], the HLB [1] is given as >6.

In the case of `CCCCCCCCCCCC(=O)OCC(C)OC(=O)CCCCCCCCCCC` (centres unmarked) [Propylene glycol dilaurate], the HLB [1] is listed as >6.

For `CCCCCCCC(=O)OCC(C)OC(=O)CCCCCCC` (centres unmarked) [Propylene glycol dioctanoate], the HLB [1] is given as <6.

In the case of `CCCCCCCCCCCCCCCCCC(=O)OCC(C)OC(=O)CCCCCCCCCCCCCCCCC` (centres unmarked) [Propylene glycol distearate], the HLB [1] is listed as >6.

In the case of `CCCCCCCCCCCCOS(=O)(=O)[O-].[Na+]` [Sodium lauryl sulfate, Sodium lauryl sulfate (dodecyl)], the HLB [1] is listed as 40.

For `CCCCCCCC/C=C\CCCCCCCC(=O)[O-].[Na+]` [Sodium oleate], the HLB [1] is given as 18.

For `CC[C@H](CC[C@@H](C)[C@H]1CC[C@H]2[C@@H]3CC=C4C[C@@H](O)CC[C@]4(C)[C@H]3CC[C@]12C)C(C)C` [sitosterol], the HLB [1] is listed as <10.

In the case of PEG 400-100O monostearate, the HLB [1] is listed as >10.

In the case of PEG-5 soya sterol, the HLB [1] is given as <10.

For PEG-10 soya sterol, the HLB [1] is given as <10.

For PEG-20 soya sterol, the HLB [1] is given as <10.

In the case of PEG-24 cholesterol ether, the HLB [1] is given as >10.

For PEG-25 phyto sterol, the HLB [1] is listed as >10.

For PEG-30 cholestanol, the HLB [1] is listed as >10.

For PEG-30 soya sterol, the HLB [1] is listed as >10.

In the case of Phytosterol, the HLB [1] is listed as <10.

In the case of Polyglyceryl polyricinoleate, the HLB [1] is listed as 3-20.

In the case of Propylene glycol dicaprylate/dicaprate, the HLB [1] is given as <6.

In the case of “mono- and diacetylated monoglycerides [Mono- and monoglycerides]”, the HLB [1] is given as 3.8-4, the “approximate maximum grams of hydrophobic surfactant per 100 g of hydrophilic surfactant giving a clear aqueous dispersion” value [2, 3] is given as 80 g per 100 g of hydrophilic sur and the “approximate maximum grams of hydrophobic surfactant per 100 g of hydrophilic surfactant giving a clear aqueous dispersion” value [2, 4] is given as 80 g per 100 g of hydrophilic sur. The “approximate maximum grams of hydrophobic surfactant per 100 g of hydrophilic surfactant giving a clear aqueous dispersion” value ([2]; hydrophilic surfactant Cremophor RH40 + 20% PEG-400) was 80 g per 100 g of hydrophilic sur, the “approximate maximum grams of hydrophobic surfactant per 100 g of hydrophilic surfactant giving a clear aqueous dispersion” value [2, 5] was 80 g per 100 g of hydrophilic sur and the “approximate maximum grams of hydrophobic surfactant per 100 g of hydrophilic surfactant giving a clear aqueous dispersion” value [2, 6] was 80 g per 100 g of hydrophilic sur. For the same compound, the “approximate maximum grams of hydrophobic surfactant per 100 g of hydrophilic surfactant giving acceptable optical clarity” value [2, 7] was 10 g per 100 g of hydrophilic sur, the “approximate maximum grams of hydrophobic surfactant per 100 g of hydrophilic surfactant giving acceptable optical clarity” value [2, 8] was 10 g per 100 g of hydrophilic sur and the “approximate maximum grams of hydrophobic surfactant per 100 g of hydrophilic surfactant giving acceptable optical clarity” value [2, 9] was 80 g per 100 g of hydrophilic sur. The “approximate maximum grams of hydrophobic surfactant per 100 g of hydrophilic surfactant giving acceptable optical clarity” value [2, 10] was 80 g per 100 g of hydrophilic sur, the “approximate maximum grams of hydrophobic surfactant per 100 g of hydrophilic surfactant giving acceptable optical clarity” value [2, 11] was 10 g per 100 g of hydrophilic sur and the “approximate maximum grams of hydrophobic surfactant per 100 g of hydrophilic surfactant giving acceptable optical clarity” value [2, 12] was 15 g per 100 g of hydrophilic sur. For the same compound, the “approximate maximum grams of hydrophobic surfactant per 100 g of hydrophilic surfactant giving acceptable optical clarity” value [2, 13] was 20 g per 100 g of hydrophilic sur.

— patent publication US6451339B2, “Compositions and methods for improved delivery of hydrophobic agents” (Lipocine, Inc., priority 1999, dated 2002)
